Measured values from article PMC8147781, “Discovery of Pyrrolidine-2,3-diones as Novel Inhibitors of P. aeruginosa PBP3” (Antibiotics, 2021).
Values after ≈ are worked out from the molar mass of the structure shown. Values joined by “and” are separate entries in the source; they are usually repeats but may differ in a detail not shown here. Equal values may be shown once.

What was measured:
[1] = tested on: P. aeruginosa PAO1 (wild-type strain); experiment: MIC broth microdilution, P. aeruginosa PAO1; assay type: cell-based, Pseudomonas aeruginosa; conditions: wild-type strain, with 4 µg/mL PMBN
From the text: (§1) The results presented above implied that seven pyrrolidine-2,3-dione derivatives inhibited the activity of ^PaPBP3 in vitro. Consequently, we were very interested in investigating the potential of these compounds to affect the growth of P. aeruginosa. Two P. aeruginosa bacterial strains (the wild-type PAO1 and the isogenic ΔmexB ΔmexX ΔmexCD-oprJ efflux pump mutant) were used to determine the MIC and the potential role of the main P. aeruginosa efflux systems in compound uptake. To increase the antibacterial sensitivity of the tested P. aeruginosa isolates to the potential inhibitors, we performed MIC experiments in the presence and absence of a sub-MIC concentration (4 µg/mL) of the outer membrane permeabilising polymyxin B nonapeptide (PMBN). […] Thus, we concluded that the physicochemical properties of the pyrrolidine-2,3-dione compounds were perhaps not yet favourable enough to cross the P. aeruginosa cell envelope without a permeabiliser because of their high hydrophobicity.
(§2) The wild-type P.aeruginosa PAO1 and the isogenic P. aeruginosa K2896 ΔmexBΔmexXYΔmexCD-oprJ isolates were used to determine the MIC in the presence and absence of PMBN [48].
(§3) MIC determination was performed via standard broth microdilution according to the Clinical & Laboratory Standards institute guidelines. Overnight colonies grown on BD-Columbia agar with 5% Sheep Blood (Becton Dickinson, Franklin Lakes, NJ, USA), were diluted in Mueller Hinton Broth 2 cation adjusted (MH+) medium (Thermo Fisher Scientific) to a concentration of 5 × 10^5 CFU/mL. Serial dilutions (1:2) of test compounds were incubated at 37 °C with 5 × 10^4 bacteria in a final volume of 100 μL. Sterile and growth controls in the presence of 1% DMSO and PMBN if the case, and the positive controls, aztreonam (AZT) and tigecycline (TIG) were included in the experiments (Table S4). The MICs were determined visually after 18 h at 37 °C and confirmed by the addition of 10% PrestoBlue (ThermoFisher Scientific) reagent according to the manufacture’s protocol. The fluorescence signal of PrestoBlue reagent was measured at Ex/Em: 550/595 nm after 30 min incubation at 37 °C using at a ClarioStar microplate reader (BMG Labtech). PrestoBlue reduction occurs in the presence of living cells and consequently turns red in colour and is highly fluorescent.

[2] = tested on: P. aeruginosa K2896 ΔmexBΔmexXYΔmexCD-oprJ; experiment: MIC broth microdilution, P. aeruginosa K2896 efflux mutant; assay type: cell-based, Pseudomonas aeruginosa; conditions: ΔmexB; ΔmexX, ΔmexCD-oprJ, with 4 µg/mL PMBN
From the text: as §1, §2, §3

[3] = tested on: Hep G2, epithelial liver cell line; experiment: Cytotoxicity assay (PrestoBlue), HepG2; conditions: CC50, 72 h
Method: (§4) We finally tested the cytotoxicity of the compounds against four eukaryotic cell lines (Table 2 and Table S5), NRK-52E, an epithelial kidney cell line of Rattus norvegicus; Hep G2, an human epithelial liver cell line; and two suspension cell lines: CCRF-CEM, a T lymphoblast; and H9, a cutaneous T lymphocyte cell line.
(§5) Cell lines stored at −120 °C were thawed to 37 °C and resuspended in 10 mL of medium pre-warmed to 37 °C. Cells were pelleted at 300× g for 10 min, and then resuspended in fresh medium, seeded in a T-75 culture flask, and placed in a CO2 incubator (37 °C with 5% CO2 tension). Once the cells reached approximately 70–80% confluency, they were then passaged regularly. The adherent cell lines NRK52E, HepG2 and Huh 7 were washed once with 10 mL DPBS and detached with Trypsin-EDTA for 5 to 7 min and resuspended in 15 mL of the appropriate medium. The suspension cell line CCRF-CEM were diluted and resuspended in fresh RPMI 1640 PAN medium. To calculate the cell density, the cell resuspensions were diluted 1:6 with DPBS. Equal volumes of cell suspension and Trypan Blue were mixed and gently loaded into a haemocytometer (INCYTO, 31056 Republic of Korea). In each experiment, cell concentrations were adjusted to reach a concentration of 2.5 × 10^3 cell/well for NRK52E, 5 × 10^3 cell/well for HepG2, 6.2 × 10^4 cell/well for CCRF-CEM and 3 × 10^3 for H9. The cells were incubated with decreasing concentration of compounds (1 µL in 96% DMSO) for 72 h at 37 °C with 5% CO2 tension. Cycloheximide, a cytotoxic compound that interferes with the translocation step in eukaryotic protein synthesis was used as a control for the experiments. The assay was carried out in flat-bottom, transparent 96-well plates. Cell viability was determined using the PrestoBlue reagent (Thermo Fisher Scientific, Waltham, MA, USA) according to the manufacture’s protocol. First, 10× PrestoBlue was added to each well to obtain a 1× solution, and incubated at 37 °C for 45 min. Then, fluorescence was measured at Ex/Em: 550/595 nm using a ClarioStar microplate reader (BMG Labtech). Cytotoxicity was determined as the percentage of the difference in absorbance of the untreated sample to the treated sample. CC50 was calculated using the values obtained in each concentration using the sigmoidal dose-response by Prism v.8. The media used in each cell line is detailed in Table S6.

[4] = target: T1, PBP3 of P. aeruginosa (PaPBP3) (Pseudomonas aeruginosa, UniProt G3XD46); experiment: FP-Bocillin FL competition assay; assay type: binding; conditions: 30 min preincubation before Bocillin FL, 37 °C; read-out: IC50 Determination with PaPBP3, FP-Bocillin FL Assay
T1 construct: P. aeruginosa PBP3 (amino acids 40 to 563); His-tag; made in house; host or cells: E. coli BL21 (DE3) Rosetta, plasmid pET41_PBP-3
T1 sequence (G3XD46 40-563): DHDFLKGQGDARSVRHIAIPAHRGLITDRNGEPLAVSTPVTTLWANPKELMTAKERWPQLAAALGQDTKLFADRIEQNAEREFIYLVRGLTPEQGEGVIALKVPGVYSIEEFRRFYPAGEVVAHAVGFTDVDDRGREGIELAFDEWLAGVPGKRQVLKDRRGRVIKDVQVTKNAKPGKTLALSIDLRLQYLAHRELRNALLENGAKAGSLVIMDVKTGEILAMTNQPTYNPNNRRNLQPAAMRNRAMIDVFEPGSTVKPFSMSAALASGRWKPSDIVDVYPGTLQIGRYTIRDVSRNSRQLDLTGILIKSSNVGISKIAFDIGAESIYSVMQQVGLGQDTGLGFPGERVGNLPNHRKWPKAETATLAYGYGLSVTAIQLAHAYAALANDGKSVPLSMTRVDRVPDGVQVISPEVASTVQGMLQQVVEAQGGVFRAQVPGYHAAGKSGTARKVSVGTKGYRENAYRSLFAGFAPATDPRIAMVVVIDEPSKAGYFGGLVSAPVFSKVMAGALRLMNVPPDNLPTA
Method: Bocillin FL is a fluorescent penicillin V derivate used as a competitor for PBP inhibitors.
Fluorescence polarisation (FP) experiments were carried out as described before. To determine the binding of Bocillin FL to PBP, 200 nM of ^PaPBP3 was incubated for 30 min with 100 nM of Bocillin FL (Thermo Fisher Scientific, Waltham, MA, USA). The fluorescence polarisation signal of free Bocillin FL was monitored in a Pherastar microplate reader (BMG Labtech, Ortenberg, Germany) in the polarisation mode with Ex/Em: 485/520 nm excitation and emission filters. Millipolarisation (mP) units were calculated using the MARS data analysis software v30.40.R2 (BMG Labtech, Ortenberg, Germany). All the experiments were done in Sorensen buffer at 37 °C using flat-bottom, black 96-well plates. […] Bocillin FL was diluted in Sorensen buffer and added to the reaction and directly measured for 30 min at 37 °C. The FP was continuously measured in the presence and absence of compound and enzyme. […] The estimated IC50 values were established by sigmoidal nonlinear regression, using Prims v.8 software.

[5] = tested on: NRK-52E, epithelial kidney cell line; experiment: Cytotoxicity assay (PrestoBlue), NRK52E; conditions: CC50, 72 h
Method: as §4, §5

| SMILES | MIC (µM) against P. aeruginosa PAO1 [1] [µM] | MIC (µM) against P. aeruginosa K28926 [2] [µM] | Cytotoxicity effect (µM) Epithelial liver HepG2 [3] [µM] | IC50 [4] | Cytotoxicity effect (µM) Epithelial kidney NRK52E [5] [µM] |
| --- | --- | --- | --- | --- | --- |
| O=C1NC(c2ccc(Cl)cc2)C(C(=O)c2ccc(Br)cc2)=C1O (stereo not drawn) [Compound 32, 4-(4-bromobenzoyl)-5-(4-chlorophenyl)-3-hydroxy-1,5-dihydropyrrol-2-one] | >100 | >100 | > 100 | > 100 µM | 98 ± 5 |
| O=C(C1=C(O)C(=O)N(Cc2nc3ccccc3[nH]2)C1c1ccc(Cl)cc1)c1ccc(Br)cc1 (stereo not drawn) [Compound 38] | >100 | >100 | > 100 | 117 ± 4 µM | > 100 |
| O=C(C1=C(O)C(=O)N(Cc2ccco2)C1c1ccc(Cl)cc1)c1ccc(Br)cc1 (stereo not drawn) [Compound 41, 4-(4-bromobenzoyl)-5-(4-chlorophenyl)-1-(furan-2-ylmethyl)-3-hydroxy-5H-pyrrol-2-one] |  | 25 (≈ 11.8 µg/mL) | > 100 | > 100 µM | > 100 |
| CCNC1=C(C(=O)c2ccc(Br)cc2)C(c2ccc(Cl)cc2)N(Cc2cccc(F)c2)C1=O (stereo not drawn) [Compound 43, 4-(4-bromobenzoyl)-5-(4-chlorophenyl)-3-(ethylamino)-1-[(3-fluorophenyl)methyl]-5H-pyrrol-2-one] | >100 | >100 | > 100 | > 100 µM | 73 ± 9.2 |
| O=C(C1=C(O)C(=O)N(CCc2cc3ccccc3[nH]2)C1c1ccc(Cl)cc1)c1ccc(Br)cc1 (stereo not drawn) [Compound 37] |  |  | 20 ± 4 | 17 ± 3 µM | 9 ± 12 |
| O=C(C1=C(O)C(=O)N(Cc2cccc(F)c2)C1c1ccc(Cl)cc1)c1ccc(Br)cc1 (stereo not drawn) [Compound 1] |  | 12.5 (≈ 6.26 µg/mL) | > 100 | 7 ± 3 µM | > 100 |
| O=C(C1=C(O)C(=O)N(CCc2c[nH]c3ccccc23)C1c1ccc(Cl)cc1)c1ccc(Br)cc1 (stereo not drawn) [Compound 40] |  |  | > 100 | 4 ± 2 µM | > 100 |
| O=C(C1=C(N2CCOCC2)C(=O)N(Cc2cccc(F)c2)C1c1ccc(Cl)cc1)c1ccc(Br)cc1 (stereo not drawn) [Compound 44, 4-(4-bromobenzoyl)-5-(4-chlorophenyl)-1-[(3-fluorophenyl)methyl]-3-(morpholin-4-yl)-5H-pyrrol-2-one] | >100 | >100 | > 100 | > 100 µM | 52 ± 3 |
| O=C(C1=C(O)C(=O)N(Cc2cc3ccccc3[nH]2)C1c1ccc(Cl)cc1)c1ccc(Br)cc1 (stereo not drawn) [Compound 34, 4-(4-bromobenzoyl)-5-(4-chlorophenyl)-3-hydroxy-1-(1H-indol-2-ylmethyl)-5H-pyrrol-2-one] |  |  | > 100 | 4 ± 4 µM | > 100 |
| O=C(C1=C(O)C(=O)N(Cc2cc3cnccc3[nH]2)C1c1ccc(Cl)cc1)c1ccc(Br)cc1 (stereo not drawn) [Compound 36] | >100 | 100 (≈ 52.3 µg/mL) | 1 ± 2 | > 100 µM | 58 ± 3 |
| O=C(C1=C(O)C(=O)N(Cc2cc3cc(Cl)ccc3[nH]2)C1c1ccc(Cl)cc1)c1ccc(Br)cc1 (stereo not drawn) [Compound 35] |  |  | > 100 | 2 µM and 0.6 µM | 53 ± 5 |
| CCN1C(=O)C(O)=C(C(=O)c2ccc(Br)cc2)C1c1ccc(Cl)cc1 (stereo not drawn) [Compound 33] | >100 | >100 | > 100 | > 100 µM | 84 ± 5 |
| O=C(C1=C(O)C(=O)N(Cc2cscn2)C1c1ccc(Cl)cc1)c1ccc(Br)cc1 (stereo not drawn) [Compound 42] | >100 | >100 | > 100 | > 100 µM | > 100 |
| CCNC1=C(C(=O)c2ccc(Br)cc2)C(c2ccc(Cl)cc2)N(Cc2c[nH]c3ccccc23)C1=O (stereo not drawn) [Compound 45] | >100 | >100 | 23 ± 8 | > 100 µM | 23 ± 11 |
